Assay results from patent US11549123B2, “Plant EPSP synthases and methods of use” (PIONEER HI-BRED INTERNATIONAL, INC., priority 2015, dated 2023).

Key:
Type in all cases: biochemical
[1] = tested on: Helianthus annuus EPSPS with 868-H6 mutations, SEQ ID NO:10; assay: EPSPS substrate saturation kinetics, sunflower H6; details: PEP
Description: (§1) EPSPS activity was determined by quantifying the phosphate generated from the EPSPS reaction. Release of inorganic phosphate was coupled to reaction with 2-amino-6-mercapto-7-methylpurine ribonucleoside, catalyzed by purine-nucleoside phosphorylase (M R Webb, Proc. Natl. Acad. Sci. 89:4884-4887, 1992). The absorbance change that occurs was monitored at 360 nm, where the extinction is 11,200 M^−1 cm^−1, with a Spectramax plate reader (Molecular Devices). To determine kinetic parameters, the varied substrate was present at seven concentrations (the eighth being the blank, containing no substrate) ranging from 4 to 400 uM and the unvaried substrate present at saturation. […] Reactions were monitored with a Spectramax plate reader. […] KI was then calculated from the following form of the Michaelis-Menten equation for competitive inhibition: KI=KM[I]/(KM app−KM) KM approximates the dissociation constant of the enzyme-substrate complex while kcat is the rate of conversion of substrate to product when the substrate concentration is saturating. kcat/KM is a widely accepted parameter for catalytic efficiency when substrate concentration is low (˜KM). […] The parameter kcat/KM×KI is used to quantify both catalytic efficiency and insensitivity and thus the overall fitness of the enzyme.
(§2) Native EPSPS amino acid sequences of rice (Oryza sativa) (SEQ ID NO:7), sorghum (Sorghum halepense) (SEQ ID NO:8), and sunflower (Helianthus annus) (SEQ ID NO:9) including the chloroplast transit peptide sequences were assembled and analyzed for mapping the corresponding amino acid mutations from the maize 868-H6. […]
(§3) ChloroP Prediction Server (Emanuelsson, O. et al. 1999. Protein Sci. 8(5):978-84) was used to approximate the amino terminus of the mature EPSPS proteins. […] The synthetic genes were cloned into a plasmid vector and expressed, purified and analyzed as described in Example 1.

[2] = target: T1, Zea mays EPSPS variant Zm-T103A (Zea mays, UniProt O24566, T102A); assay: Substrate saturation kinetic analysis with glyphosate, Zm-T103A
T1 construct: native maize plus T103A; E. coli BL21(DE3), Ni-NTA purified
T1 sequence (O24566 with tags, fused parts or gaps T102A): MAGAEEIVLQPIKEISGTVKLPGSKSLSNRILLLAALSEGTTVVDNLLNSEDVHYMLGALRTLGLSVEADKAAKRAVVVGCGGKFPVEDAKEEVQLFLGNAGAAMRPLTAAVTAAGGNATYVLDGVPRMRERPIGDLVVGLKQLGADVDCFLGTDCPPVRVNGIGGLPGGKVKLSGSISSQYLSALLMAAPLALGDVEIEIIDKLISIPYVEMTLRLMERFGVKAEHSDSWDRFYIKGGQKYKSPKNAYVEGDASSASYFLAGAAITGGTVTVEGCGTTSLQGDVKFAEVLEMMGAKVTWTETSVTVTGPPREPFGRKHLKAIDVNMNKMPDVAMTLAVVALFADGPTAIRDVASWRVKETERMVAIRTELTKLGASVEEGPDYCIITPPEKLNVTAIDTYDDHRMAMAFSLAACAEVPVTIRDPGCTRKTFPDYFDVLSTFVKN

[3] = target: Helianthus annuus EPSPS with 868-H6 mutations, SEQ ID NO:10 (Helianthus annuus, UniProt A0A251S0N3, A489G/D475G/E144Q/E375S/E464G/G175A/L171C/Q70R/R514Q/S352A/T434S/T72W/V156R/V281L/V511R); assay: EPSPS substrate saturation kinetics, sunflower H6
Sequence of Helianthus annuus EPSPS with 868-H6 mutations, SEQ ID NO:10 (Helianthus annuus, UniProt A0A251S0N3, A489G/D475G/E144Q/E375S/E464G/G175A/L171C/Q70R/R514Q/S352A/T434S/T72W/V156R/V281L/V511R) (A0A251S0N3 67-518 with the stated changes): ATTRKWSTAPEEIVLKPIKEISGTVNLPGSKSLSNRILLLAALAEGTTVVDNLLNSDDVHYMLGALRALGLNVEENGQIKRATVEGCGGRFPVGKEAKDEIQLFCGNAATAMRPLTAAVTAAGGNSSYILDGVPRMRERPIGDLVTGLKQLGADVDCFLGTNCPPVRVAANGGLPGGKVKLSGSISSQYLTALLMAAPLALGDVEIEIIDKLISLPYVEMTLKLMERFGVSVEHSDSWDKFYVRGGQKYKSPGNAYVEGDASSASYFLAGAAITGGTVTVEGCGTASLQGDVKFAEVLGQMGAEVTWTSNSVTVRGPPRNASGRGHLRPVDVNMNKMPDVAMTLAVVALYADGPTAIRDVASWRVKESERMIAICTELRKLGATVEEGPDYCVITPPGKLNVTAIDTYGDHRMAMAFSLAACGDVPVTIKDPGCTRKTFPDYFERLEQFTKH
Description: as §1, §2, §3

[4] = target: Zea mays EPSPS variant 202R (Zea mays, UniProt O24566, I201R); assay: EPSPS reaction rate with or without 10 uM glyphosate, 202R; details: pH 7; read-out: Reaction rate with 10 μM glyph, % no glyph; note: 50 µM PEP and S3P
Sequence of Zea mays EPSPS variant 202R (O24566 entry or part of it I201R): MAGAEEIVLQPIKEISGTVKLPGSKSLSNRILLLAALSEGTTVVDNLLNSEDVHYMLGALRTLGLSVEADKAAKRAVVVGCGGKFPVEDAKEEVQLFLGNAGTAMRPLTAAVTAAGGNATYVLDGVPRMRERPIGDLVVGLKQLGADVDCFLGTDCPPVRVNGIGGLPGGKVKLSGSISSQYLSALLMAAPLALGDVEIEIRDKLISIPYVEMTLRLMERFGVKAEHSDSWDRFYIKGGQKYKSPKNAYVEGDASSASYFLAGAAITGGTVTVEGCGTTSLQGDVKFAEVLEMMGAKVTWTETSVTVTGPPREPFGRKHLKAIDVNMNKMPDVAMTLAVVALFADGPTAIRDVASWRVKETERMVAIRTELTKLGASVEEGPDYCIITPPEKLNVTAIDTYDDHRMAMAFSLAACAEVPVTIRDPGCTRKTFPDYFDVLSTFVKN

[5] = target: Zea mays EPSPS variant 771-C2 (A4W, H54M, L98C, G102A, K173R, I208L, K243E, E302S, T361S, E391P, D402G, A416G, V438R, S440R, T441Q, F442V), SEQ ID NO:4 (Zea mays, UniProt O24566, A3W/A415G/D401G/E301S/E390P/F441V/G101A/H53M/I207L/K172R/K242E/L97C/S439R/T360S/T440Q/V437R); assay: EPSPS substrate saturation kinetics, 771-C2
Description: as §1, with “enzyme. […]” for “enzyme.”

[6] = PEP as substrate, glyphosate as inhibitor

C=C(OP(=O)(O)O)C(=O)O [PEP, phosphoenolpyruvate]
kcat/KM relative to maize H6 [1]: 38%

O=C(O)CNCP(=O)(O)O [glyphosate, N-phosphonomethylglycine]
Ki [2]: 208 µM | (kcat/KM)*KI ([2]; substrate saturation, Zm-T103A): 321 | Ki [3]: 1580 µM | (kcat/KM)*KI [3, 6]: 8960 | activity at 10 µM [4]: 7.48% | Ki [5]: 350 µM | (kcat/KM)*KI [5, 6]: 5800
